Molecules are shown by their SMILES. Where “and” joins values, the source holds several entries; their conditions need not be identical. Identical values can stand only once. Entries after “also recorded” stand apart in the source; their conditions may differ. Like-named read-outs stand apart in the source and are kept apart here.

Data on 15 compounds can be found in paper PMC6337619, “Identification of Novel Potential Inhibitors of Pteridine Reductase 1 in Trypanosoma brucei via Computational Structure-Based Approaches and in Vitro Inhibition Assays” (Molecules, 2019).

Data set [1] is described as follows: In vitro human cytotoxicity assay (resazurin). Particulars: human, HeLa cells. (In general: Resazurin is reduced to fluorescent resorufin, in cell work by metabolically active cells.)
Description: (§2) The compounds assayed for trypanocidal activity were also tested to determine if they caused adverse effects against human cells in vitro. For this assay, HeLa cells were used. The cells were cultured in DMEM supplemented with 10% fetal calf serum and antibiotics (penicillin/streptomycin/amphotericin B) at 37 °C in a 5 % CO2 incubator. Cells were plated at a density of 2 × 10^4 cells/well and after an overnight incubation the compounds were assayed for cytotoxic activity by adding three-fold serial dilutions of each compound (with a 100 µM starting concentration) to the 96-well plates, followed by incubation for 48 h. Cell viability was determined using the resazurin method [74]. Resazurin (0.5 mM in phosphate-buffered saline; 20 µL/well) was added to the cells and, after a 2-h incubation, fluorescence was read in a Spectramax M3 plate reader at excitation and emission wavelengths of 560 nm and 590 nm, respectively. Fluorescence readings were converted to percentage cell viability relative to control wells untreated with compounds. Plots of % cell viability versus log[compound] were used to determine IC50 values by non-linear regression using GraphPad Prism (version 5.02, GraphPad Software Inc., San Diego, USA). Three repeats of the experiment were carried out.
The test system of data set [2] is T. b. brucei (strain Lister 427). Put plainly: Trypanosoma in vitro inhibition assay (resazurin). Type of data set: cell-based. Conditions: for anti-trypanosomal activity at single concentration: 20 µM, T. brucei BSF in culture; for IC50: blood stream form, 24 h + 24 h resazurin, mean ± SD of three independent experiments, read-out: IC50 against T. brucei BSF in culture. The method, then: (§1) Compounds RUBi001, RUBi005, and RUBi015 were purchased from MCULE while RUBi002, RUBi004, RUBi007, RUBi008, RUBi010, RUBi011, RUBi012, RUBi014, RUBi016, and RUBi018 were obtained from MolPort (not all the compounds were commercially available). These compounds were assayed for trypanocidal activity by adding 20 μM of each compound to cultures of T. b. brucei (strain Lister 427) in 96-well plates. The parasites were maintained at 37 °C and 5% CO2 in an IMDM medium containing 25 mM HEPES, 10% fetal bovine serum, 1 mM hypoxanthine, 0.05 mM bathocuproine disulfonic acid, 1.5 mM cysteine, 1.25 mM pyruvic acid, 0.09 mM uracil, 0.09 mM cytosine, 0.16 mM thymidine, and 0.014 % 2-mercaptoethanol. Parasites were diluted to 2.4 × 10^4 cells in a volume of 200 µL per well and incubated with the test compounds for 24 h. Parasite percentage viability was determined using the resazurin method. Resazurin (0.5 mM in phosphate-buffered saline; 20 µL/well) was added to each well and incubation continued for a further 24 h, after which fluorescence (Ex560/Em590) was read in a Spectramax M3 microplate reader (Molecular Devices). Trypanocidal activity of the compounds was reported as the percentage of viable parasites in the compound-treated wells when compared to untreated controls (% viability). Pentamidine, an FDA-approved trypanocidal drug, was used as the control drug standard. For compounds that produced <20% viability, IC50 values were subsequently determined. The assays were conducted as described above, except that parasites were incubated with 3-fold serial dilutions of the test compounds and IC50 values derived from % parasite viability vs. log[compound] dose-response plots by non-linear regression analysis using GraphPad Prism (version 5.02, GraphPad Software Inc., San Diego, USA). IC50 evaluations were carried out on three independent occasions and the mean IC50 ± standard deviation is reported in the text. To assess compound interactions, the compounds were assayed for trypanocidal activity when used in combination with WR99210, a known TbDHFR inhibitor [42]. […] For isobologram analysis, the fractional inhibitory concentrations of the RUBi compounds and WR99210 were calculated by dividing the IC50s obtained for the compounds at the various combination ratios with the IC50 obtained for the compounds in the absence of the partner drug, and the FIC values plotted against each other, i.e., RUBi compound FIC versus WR99210 FIC.

For data set [3] the test system is unchanged. Description: Isobologram combination assay with WR99210. Particulars: ratios 75:25, 50:50, 25:75 with TbDHFR inhibitor WR99210. Type of data set: cell-based. As for the experimental part: as §1
Data set [4] is described as follows: in vitro. Particulars: human, HeLa cells.
Description: as §2
The subject of data set [5] is HeLa cells. Description: In vitro human cytotoxicity assay (resazurin). Conditions: at 100 µM.
Description: as §2
The test system of data set [6] is T. brucei in culture. The arrangement: method as in PMID 16729575, PMID 16569852. Particulars: cited from earlier work.

Take `CC[C@H]1CN2CCc3cc(OC)c(OC)cc3[C@@H]2C[C@@H]1C[C@H]1NCCc2cc(OC)c(OC)cc21` [Emetine, reference compound]: the half-maximal inhibitory concentration (IC50) at 48 h in data set [1] was 0.013 µM.
As for `O=c1cc(-c2cccc(O)c2O)oc2ccc(O)cc12` [RUBi001, 2-(2,3-dihydroxyphenyl)-6-hydroxychromen-4-one], the “anti-trypanosomal activity at single concentration” value (“anti-trypanosomal activity” for short) in data set [2] is on record as “did not show anti-trypanosomal activity”.
Take `COc1ccc2oc3cc(OCC(=O)Nc4c(C)cccc4C)cc(O)c3c(=O)c2c1` [RUBi002, N-(2,6-dimethylphenyl)-2-(1-hydroxy-7-methoxy-9-oxo-xanthen-3-yl)oxy-acetamide]: the “anti-trypanosomal activity” value in data set [2] is recorded as “did not show anti-trypanosomal activity”.
Consider `CC1=NN(c2ccc(C)cc2C)C(=O)/C1=C/NNC(=O)c1cccc([N+](=O)[O-])c1` [RUBi004, N'-{[1-(2,4-dimethylphenyl)-3-methyl-5-oxo-1,5-dihydro-4H-pyrazol-4-ylidene]methyl}-3-nitrobenzohydrazide], for which, in data set [2] (Trypanosoma brucei, 48 h), the IC50 stood at 9.6 ± 3.2 µM. Moreover, the IC50 at 48 h in data set [1] worked out at 23.6 ± 5.8 µM. Also, the “effect in combination with WR99210 (isobologram, FIC)” value (shortened to “effect … (isobologram, FIC)”) in data set [3] is recorded as “reduced inhibition; also recorded: moderate to strong antagonism; also recorded: antagonistic effect”.
On to `Cc1ccccc1OCC(=O)NNC(=S)NC(=O)c1ccccc1[N+](=O)[O-]` [RUBi005, 2-nitro-N-({2-[(2-methylphenoxy)acetyl]hydrazino}carbothioyl)benzamide], for which, in data set [2], the “anti-trypanosomal activity” value is recorded as “did not show anti-trypanosomal activity”.
For `COc1ccc(NC(=O)CSc2nc3[nH]ncc3c(=O)n2-c2ccccc2)cc1` [RUBi007, N-(4-methoxyphenyl)-2-[(4-oxo-5-phenyl-4,5-dihydro-1H-pyrazolo[3,4-d]pyrimidin-6-yl)sulfanyl]acetamide], the IC50 in data set [2] (Trypanosoma brucei, 48 h) is 34.9 ± 17.1 µM. Also, the viability at 48 h, 100 µM in data set [4] was over 90%. For the same compound, the human cell cytotoxicity result in data set [5] is “no significant human (human cervix adenocarcinoma (HeLa)) cell cytotoxicity”. Also, the “effect … (isobologram, FIC)” value in data set [3] was “reduced inhibition; also recorded: moderate to strong antagonism; also recorded: antagonistic effects”; in data set [3] (listed as RUB007) it was “antagonistic effect”.
As to `COc1cc(CNc2nc[nH]n2)ccc1OCc1cccc(C)c1` [RUBi008, [3-Methoxy-4-(3-methyl-benzyloxy)-benzyl]-(1H-[1,2,4]triazol-3-yl)-amine], the “anti-trypanosomal activity” value in data set [2] is recorded as “did not show anti-trypanosomal activity”.
On to `Nc1ccc2nc(SCC(=O)N3CCCC3)sc2c1` [RUBi010, 2-{[2-oxo-2-(1-pyrrolidinyl)ethyl]sulfanyl}-1,3-benzothiazol-6-ylamine], for which the “anti-trypanosomal activity” value in data set [2] is “did not show anti-trypanosomal activity”.
As to `Cc1ccc(NC(=O)Cn2c(-c3nonc3N)nc3ccccc32)cc1F` [RUBi011, 2-[2-(4-amino-1,2,5-oxadiazol-3-yl)-1H-benzimidazol-1-yl]-N-(3-fluoro-4-methylphenyl)acetamide], the “anti-trypanosomal activity” value in data set [2] is “did not show anti-trypanosomal activity”.
As to `NS(=O)(=O)c1ccc(NC(=O)NC2CCCCC2)cc1` [RUBi012, 1-cyclohexyl-3-(4-sulfamoylphenyl)urea], the “anti-trypanosomal activity” value in data set [2] was “did not show anti-trypanosomal activity”.
Turning to `O=C1CC(c2ccc(O)c(O)c2)Oc2cc(O)cc(O)c21` (stereo not drawn) [RUBi014, 2-(3,4-dihydroxyphenyl)-5,7-dihydroxy-3,4-dihydro-2H-1-benzopyran-4-one], the half-inhibitory concentration (IC50) in data set [2] (Trypanosoma brucei, 48 h) was determined as 14.6 ± 9.9 µM. The IC50 at 48 h in data set [1] is 32.9 ± 2.2 µM. Also, the “effect … (isobologram, FIC)” value in data set [3] was “reduced inhibition; also recorded: moderate to strong antagonism; also recorded: antagonistic effect”. In addition, in data set [6], the anti-protozoal activity result is on record as “selectively anti-protozoal with activity against T. brucei in culture”.
For the compound `Cn1c(=O)c2ncn(CC(=O)Nc3ccc(O)cc3)c2n(C)c1=O` [RUBi016, 2-(1,3-dimethyl-2,6-dioxo-1,2,3,6-tetrahydro-9H-purin-9-yl)-N-(4-hydroxyphenyl)acetamide], the concentration for half-maximal inhibition (IC50) in data set [2] (Trypanosoma brucei, 48 h) came out at 25.4 ± 4.7 µM. In data set [4], this compound gave a viability at 48 h, 100 µM of over 90%. Also, in data set [5], the human cell cytotoxicity result is “no significant human (human cervix adenocarcinoma (HeLa)) cell cytotoxicity”. Besides, the “effect … (isobologram, FIC)” value in data set [3] was “additive effect”.
As for `O=C(CC1S/C(=N\N=C2CCCC2)N=C1O)Nc1ccccc1` (stereo not drawn) [RUBi018, 2-[2-(cyclopentylidenehydrazono)-4-hydroxy-2,5-dihydro-1,3-thiazol-5-yl]-N-phenylacetamide], in data set [2] (Trypanosoma brucei, 48 h), the IC50 was 12.7 ± 3.7 µM. In data set [4], this compound yielded a viability at 48 h, 100 µM of over 90%. For the same compound, the human cell cytotoxicity entry in data set [5] is “no significant human (human cervix adenocarcinoma (HeLa)) cell cytotoxicity”. The “effect … (isobologram, FIC)” value in data set [3] is on record as “reduced inhibition; also recorded: moderate to strong antagonism; also recorded: antagonistic effect”.
As for `CC1(C)N=C(N)N=C(N)N1OCCCOc1cc(Cl)c(Cl)cc1Cl` [WR99210, reference compound], the IC50 in data set [2] was 0.5 µM and 0.55 µM.
As to `N=C(N)c1ccc(OCCCCCOc2ccc(C(=N)N)cc2)cc1` [pentamidine, reference compound], the half-inhibitory concentration (IC50) in data set [2] (Trypanosoma brucei, 48 h) was found to be 0.014 µM.

In general, IC50 refers to the concentration that gives 50% inhibition. In general, viability refers to the share of living cells, or the viability signal relative to a control.
